Assay results from PubChem BioAssay (NCI).
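Results reflect a 48-hour exposure of cells in 96-well plates to compound at five concentrations. GI50: concentration for 50% inhibition of growth. TGI denotes the concentration required for complete inhibition of growth.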

How the values were obtained:
Assay in all cases: DTP human tumour cell line panel, 48 h; in the data active = GI50 below about 0.43 µM; inactive = the rest
[1] = tested on: 786-0 renal
[2] = tested on: A498 renal
[3] = tested on: ACHN renal
[4] = tested on: BT-549 breast
[5] = tested on: CAKI-1 renal
[6] = tested on: COLO 205 colon
[7] = tested on: DU-145 prostate
[8] = tested on: HCT-15 colon
[9] = tested on: HL-60(TB) leukemia
[10] = tested on: HOP-92 NSCLC
[11] = tested on: HS 578T breast
[12] = tested on: HT29 colon
[13] = tested on: IGROV1 ovarian
[14] = tested on: K-562 leukemia
[15] = tested on: KM12 colon
[16] = tested on: LOX IMVI melanoma
[17] = tested on: M14 melanoma
[18] = tested on: MALME-3M melanoma
[19] = tested on: MCF7 breast
[20] = tested on: MDA-MB-231 breast
[21] = tested on: MDA-MB-435
[22] = tested on: MOLT-4 leukemia
[23] = tested on: NCI-H226 lung
[24] = tested on: NCI-H23 lung
[25] = tested on: NCI-H460 lung
[26] = tested on: NCI-H522 lung
[27] = tested on: NCI/ADR-RES ovarian
[28] = tested on: OVCAR-3 ovarian
[29] = tested on: OVCAR-4 ovarian
[30] = tested on: OVCAR-5 ovarian
[31] = tested on: PC-3 prostate
[32] = tested on: RXF 393 renal
[33] = tested on: SF-268 CNS
[34] = tested on: SF-295 CNS
[35] = tested on: SK-MEL-2 melanoma
[36] = tested on: SK-MEL-28 melanoma
[37] = tested on: SK-MEL-5 melanoma
[38] = tested on: SK-OV-3 ovarian
[39] = tested on: SN12C renal
[40] = tested on: SNB-19 CNS
[41] = tested on: SNB-75 CNS
[42] = tested on: SW-620 colon
[43] = tested on: T-47D breast
[44] = tested on: TK-10 renal
[45] = tested on: U251 CNS
[46] = tested on: UACC-62 melanoma
[47] = tested on: UO-31 renal
[48] = tested on: A549 NSCLC
[49] = tested on: CCRF-CEM leukemia
[50] = tested on: EKVX NSCLC
[51] = tested on: HCT-116 colon
[52] = tested on: HOP-62 NSCLC
[53] = tested on: OVCAR-8 ovarian
[54] = tested on: RPMI-8226 leukemia
[55] = tested on: SF-539 CNS
[56] = tested on: UACC-257 melanoma

CCOC(=O)c1cc(NC(=O)c2cc(NC(=O)c3cc(NC(=O)c4c(-c5ccccc5)noc4C)cn3C)cn2C)cn1C
active: GI50 [10] 0.241 µM
4.36 µM: TGI [10]
inactive: GI50 [1] > 100 µM | GI50 [2] > 100 µM | GI50 [3] > 100 µM | GI50 [4] 4.37 µM | GI50 [5] > 100 µM | GI50 [6] > 100 µM | GI50 [7] 16.9 µM | GI50 [8] > 100 µM | GI50 [9] 10.6 µM | GI50 [11] > 100 µM | GI50 [12] > 100 µM | GI50 [13] > 100 µM | GI50 [14] 9.3 µM | GI50 [15] > 100 µM | GI50 [16] > 100 µM | GI50 [17] 47.1 µM | GI50 [18] 91.2 µM | GI50 [19] > 100 µM | GI50 [20] 35 µM | GI50 [21] > 100 µM | GI50 [22] 8.97 µM | GI50 [23] 60.3 µM | GI50 [24] > 100 µM | GI50 [25] > 100 µM | GI50 [26] > 100 µM | GI50 [27] > 100 µM | GI50 [28] 47.9 µM | GI50 [29] > 100 µM | GI50 [30] > 100 µM | GI50 [31] 19.2 µM | GI50 [32] > 100 µM | GI50 [33] > 100 µM | GI50 [34] > 100 µM | GI50 [35] > 100 µM | GI50 [36] > 100 µM | GI50 [37] > 100 µM | GI50 [38] > 100 µM | GI50 [39] 73.4 µM | GI50 [40] > 100 µM | GI50 [41] > 100 µM | GI50 [42] > 100 µM | GI50 [43] > 100 µM | GI50 [44] > 100 µM | GI50 [45] > 100 µM | GI50 [46] 44.4 µM | GI50 [47] > 100 µM
> 100 µM: TGI [1] | TGI [2] | TGI [3] | TGI [5] | TGI [6] | TGI [7] | TGI [8] | TGI [9] | TGI [11] | TGI [12] | TGI [13] | TGI [14] | TGI [15] | TGI [16] | TGI [17] | TGI [18] | TGI [19] | TGI [20] | TGI [21] | TGI [22] | TGI [23] | TGI [24] | TGI [25] | TGI [26] | TGI [27] | TGI [28] | TGI [29] | TGI [30] | TGI [31] | TGI [32] | TGI [33] | TGI [34] | TGI [35] | TGI [36] | TGI [37] | TGI [38] | TGI [39] | TGI [40] | TGI [41] | TGI [42] | TGI [43] | TGI [44] | TGI [45] | TGI [46] | TGI [47]
59.5 µM: TGI [4]

O=C1C=Cc2cscc21
81.5 µM: TGI [43]
47.7 µM: TGI [28]
96.8 µM: TGI [39]
85.8 µM: TGI [47]
32.8 µM: TGI [32]
80.6 µM: TGI [20]
31.4 µM: TGI [1]
37.5 µM: TGI [22]
84.5 µM: TGI [17]
68.1 µM: TGI [19]
42.5 µM: TGI [26]
> 100 µM: TGI [2] | TGI [48] | TGI [3] | TGI [4] | TGI [6] | TGI [7] | TGI [50] | TGI [9] | TGI [52] | TGI [10] | TGI [11] | TGI [12] | TGI [13] | TGI [14] | TGI [15] | TGI [16] | TGI [21] | TGI [24] | TGI [25] | TGI [27] | TGI [29] | TGI [53] | TGI [31] | TGI [54] | TGI [33] | TGI [34] | TGI [55] | TGI [35] | TGI [36] | TGI [37] | TGI [38] | TGI [40] | TGI [41] | TGI [42] | TGI [44] | TGI [45] | TGI [56] | TGI [46]
52.6 µM: TGI [49]
29.3 µM: TGI [51]
66.9 µM: TGI [8]
67 µM: TGI [5]
63.7 µM: TGI [18]
